ChEMBL document CHEMBL1156962, “Evaluation of retro-inverso modifications of HTLV-1 protease inhibitors containing a hydroxyethylamine isoster” (Bioorg Med Chem, 2010)

Assay: Inhibition of HTLV1 protease assessed as decrease in substrate concentration by HPLC analysis
Set-up: species or system Human T-cell leukemia virus type I

SMILES	IC50 [µM]
CC[C@@H](C)[C@@H](NC(=O)[C@H](CC(C)C)[C@@H](O)C[C@H]1CCCN1C(=O)NCc1ccccc1)C(=O)N[C@@H](C(=O)N1CCC[C@@H]1C(=O)N1CCC[C@@H]1C(N)=O)C(C)C	1500
CC[C@@H](C)[C@@H](NC(=O)[C@@H](CC(C)C)[C@@H](O)C[C@H]1CCCN1C(=O)NCc1ccccc1)C(=O)N[C@@H](C(=O)N1CCC[C@@H]1C(=O)N1CCC[C@@H]1C(N)=O)C(C)C	550
CC[C@@H](C)[C@@H](NC(=O)[C@H](CC(C)C)[C@H](O)C[C@H]1CCCN1C(=O)NCc1ccccc1)C(=O)N[C@@H](C(=O)N1CCC[C@@H]1C(=O)N1CCC[C@@H]1C(N)=O)C(C)C	350
CC[C@H](C)[C@@H](NC[C@H](O)[C@@H](CC(C)C)NC(=O)[C@H]1CCCN1C(C)=O)C(=O)N[C@@H](C(=O)N1CCC[C@@H]1C(N)=O)C(C)C	> 10000
CC[C@H](C)[C@@H](NC[C@H](O)[C@@H](CC(C)C)NC(C)=O)C(=O)N[C@@H](C(=O)N1CCC[C@@H]1C(N)=O)C(C)C	> 10000
CC[C@@H](C)[C@@H](NC(=O)[C@@H](CC(C)C)[C@H](O)C[C@H]1CCCN1C(=O)NCc1ccccc1)C(=O)N[C@@H](C(=O)N1CCC[C@@H]1C(=O)N1CCC[C@@H]1C(N)=O)C(C)C	160
